# Reference: patent US7005517B2, “Paramagnetic metal-phthalocyanine complex compounds and contrast agent using the same” (priority 2001, dated 2006)
# Experiments:
# [1] = Wash-out time / retention time in blood and tissues; details: in vivo
# Description: The retention time (in blood) of the complex compound of said structural formula (I) according to the present invention is within the clinically effective range. Whereas DTPA-Gd, which is a conventional contrast agent, has a wash-out time of approximately 30 minutes, the compound of said structural formula (I) of the present invention has a wash-out time (from the tissues) of approximately 1 hour and 30 minutes. […] Today, in using MR angiography, which has undergone significant advancement, a pulse sequence is required. However, the contrast agent of the present invention can contrast vessels without such pulse sequence while it is also useful as a diagnostic contrast agent for intravenous administration.
# [2] = T1 & T2 measurements of contrast agents (proton relaxation times by NMR); format: physicochemical; details: for T1 / T2: 0.005M in 0.08% physiological saline, 10% heavy water
# Description: To these samples, 10% of heavy water was added to obtain a lock signal. As for the blank, 0.08% physiological saline solution was prepared. […] The respective RD values were set sufficiently high in order to eliminate their affects to the test results. […] The respective values of vd and vc as used were those values which were sufficient for parameter-fitting.
# [3] = washed out via urination; cited from earlier work
# [4] = Stability test for contrast agents in physiological saline (UV-spectrum, separation of metal ions); format: physicochemical; details: 0.01M in 0.08% physiological saline, 50° C., 24 hours
# [5] = Light absorption test under X-ray irradiation; format: physicochemical; details: 2.45 mole concentration, X-ray irradiated, compared to Iron and Super-Iron
# From the text: The compound of the present invention, GdPC-Fuxl-6, as obtained in Example 1, and the conventional X-ray contrast agents (Iron and Super-Iron) were spread onto the sticks respectively at 2.45 mole concentration, and X-ray was irradiated thereto for comparatively measuring the degree of light absorption.
# [6] = Comparative contrast imaging (spin-echo MRI) in mouse after abdominal administration of contrast agents; format: in vivo; details: 0.01M at 0.2 ml/10 g, scanned 40 minutes after administration, Set 1 and Set 2
# Description: As for the samples for obtaining magnetic resonance imaging, the appropriate amounts of Gd-DTPA (a commercial contrast agent, Magnevist manufactured by Schering, Inc.), octa(1,4,7,10-tetraoxaundecyl)Gd-phthalocyanine (hereinafter referred to as GdPC-Fuxl-6) and octa(1,4,7,10-tetraoxaundecyl)Mn-phthalocyanine (hereinafter referred to as MnPC-Fuxl-18) were dissolved in 0.08% saline solution respectively, and the respective samples at concentration of 0.01M were used. This was in reference to the administration of commercial Gd-DTPA in human at 0.5M concentration under the condition of 0.4 ml/kg in 0.2 ml.
# The above contrast agents of 0.01M concentration were administrated to mouse at 0.2 ml/10 g (female ICR, 27˜30 g, n=6). In the experiment, […], which is the maximum value in the acceptable range of the dose of the contrast agent, were injected to more clearly ascertain their effects. As for the blank for comparison purposes, the solution of 0.08% NaCl was administered. After the abdominal administration of the contrast agents, followed by a thirty-minute wait, the anesthetics (solution of a mixture of rompum, ketamin, and distilled water at 1.5:1.5:7) were injected thereto in order to sufficiently penetrate the contrast agents into the abdominal organs (the images of which were to be examined). […]
Compound,wash-out time [1],T1 ([2]; 80 MHz NMR) [s],T2 ([2]; 80 MHz NMR) [s],T1 ([2]; 300 MHz NMR) [s],T2 ([2]; 300 MHz NMR) [s],half-life period [3],T1 (degree of relaxation) ([2]; 80 MHz NMR) [ms],T2 (degree of relaxation) ([2]; 80 MHz NMR) [ms],stability (no separation of Gd and Mn ions) [4],degree of light absorption [5],contrast effects in T1 intensified images [6]
"O=C([O-])CN(CCN(CC(=O)[O-])CC(=O)[O-])CCN(CC(=O)[O-])CC(=O)[O-].[Gd+3] [Gd-DTPA, complex of diethylenetriaminepentaactic acid (DTPA) and gadolinium (III), reference compound]",approximately 30 minutes,0.0484,0.0441,0.0370,0.261,about 14 minutes,,,,,
"octa(1,4,7,10-tetraoxaundecyl)Gd-phthalocyanine [GdPC-Fuxl-6]",,0.0243,0.0174,0.0488,0.0234,,24.3,17.4,stabilized for 24 hours,superior characteristics with respect to light absorption,good contrast effects
"octa(1,4,7,10-tetraoxaundecyl)Mn-phthalocyanine [MnPC-Fuxl-18]",,0.191,0.0335,0.317,0.0207,,191,33.5,stabilized for 24 hours,,good contrast effects
